Values of other authors as cited in patent US9044531B2, “Vascular closure device” (Cordis Corporation, priority 2007, dated 2015).

Tested on: S. aureus
Settings: measured in a suitable growth medium; Bhargava et al., American Journal of Infection Control, June 1996

## Oc1cc(Cl)ccc1Oc1ccc(Cl)cc1Cl [2,4,4′-trichloro-2′-hydroxydiphenyl ether]
  minimum inhibitory concentration (MIC) against S. aureus: 0.01 ppm
